Common to all, as to experiment: NCI-60 cell line screen, 48 h
In experiment [1] the test system is CAKI-1 renal.
Experiment [2] relates to CCRF-CEM leukemia.
Experiment [3] concerns IGROV1 ovarian.
Experiment [4] relates to K-562 leukemia.
For experiment [5], the system named is M14 melanoma.
Experiment [6] has as its system NCI-H23 lung.
In experiment [7] the test system is SF-295 CNS.
Experiment [8] deals with SN12C renal.
Experiment [9] concerns SNB-19 CNS.
Experiment [10] relates to TK-10 renal.

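Test compounds were applied to cells in 96-well plates for 48 hours at 5 doses. GI50 = concentration required for 50% inhibition of growth. Definition used: TGI = concentration required for complete inhibition of growth.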

Turning to `COc1cc2c(c(OC)c1OC)-c1[nH]ncc1CC2`, the TGI in experiment [1], in experiment [2], in experiment [3], in experiment [4], in experiment [5] and in [6] was more than 100 µM in each case. Also, the TGI in experiment [7], in experiment [8], in experiment [9] and in experiment [10] was more than 100 µM in each case.
For the compound `Cn1c(=O)cc2c3c(c(NCCCO)ccc31)C(=O)c1ccccc1-2`, the GI50 in experiment [1] is 1.79 µM; in [2], 3.29 µM; in experiment [3], 4.98 µM; in experiment [4], 2.09 µM; in [5] it was 3.13 µM; in experiment [6] it was 3.37 µM. For the same compound, the GI50 in experiment [7] is 1.76 µM; in [8], 3.45 µM; in experiment [9], 4.46 µM. Further, the TGI in experiment [1] was more than 100 µM; in experiment [2] it was more than 100 µM; in experiment [3], more than 100 µM; in experiment [4], 64.3 µM; in experiment [5] it was more than 100 µM; in experiment [6] it was more than 100 µM. The TGI in experiment [7], in experiment [8] and in [9] was more than 100 µM in each case.
In the case of `O=c1[nH]c(Br)nc2c(Br)c[nH]c12`, the TGI in experiment [1], in experiment [2], in [3], in experiment [4], in experiment [5] and in experiment [6] was more than 100 µM throughout. The TGI in experiment [7], in [8], in experiment [9] and in experiment [10] was more than 100 µM in each case.
As to `CC(C)=CCc1c(O)cc(/C=C/c2cc(O)c3c(c2)C[C@@H]2C(C)(C)[C@H](O)[C@H](O)C[C@@]2(C)O3)cc1O`, the GI50 in [1] was 0.00267 µM; in experiment [2], less than 0.001 µM; in experiment [3], 1.25 µM; in [4], 0.0154 µM; in [5], 0.548 µM; in experiment [6], 1.51 µM. Besides, the GI50 in experiment [7] is less than 0.001 µM; in experiment [8] it was 2.81 µM; in experiment [9], 1.46 µM; in experiment [10], 0.479 µM. For the same compound, the TGI in experiment [1] was more than 5.6 µM; in experiment [2], 2 µM; in experiment [3], more than 10 µM; in [4] it was more than 9.25 µM; in [5], 4.02 µM; in experiment [6] it was 7.68 µM. Moreover, the TGI in [7] is 0.00118 µM; in [8] it was more than 10 µM; in experiment [9] it was more than 10 µM; in [10], more than 3.1 µM.
In the case of `CC(=O)OC1CC2CCC1(C)C2(C)C` (configuration not stated), the TGI in experiment [2], in [3], in experiment [4], in experiment [5], in experiment [6] and in experiment [7] was more than 100 µM in each case. In addition, the TGI in experiment [8], in [9] and in experiment [10] was more than 100 µM each time.
In the case of `Cn1c(CCC#N)nc2ccc(Br)cc2c1=O`, the TGI in experiment [1], in experiment [2], in experiment [3], in experiment [4], in experiment [5] and in experiment [6] was more than 100 µM throughout. Besides, the TGI in experiment [7], in [8] and in experiment [10] was more than 100 µM throughout.
For `CCCNCc1nc2ccc(Br)cc2c(=O)n1CCC`, the TGI is 36.3 µM in experiment [2]; 29.7 µM in [3]; more than 100 µM in experiment [4]; 27.4 µM in experiment [5]; 26.2 µM in [6]; 30.6 µM in [7]. Besides, the TGI amounted to 26.7 µM in experiment [8] and 30.5 µM in experiment [9].
As to `CO[C@@H]1[C@@H](OC2OC(C)C(OC3CC(C)(O)C(OC(=O)CC(C)C)C(C)O3)C(N(C)C)C2O)[C@@H](CC=O)C[C@@H](C)C(=O)/C=C/C2O[C@H]2C[C@@H](C)OC(=O)C[C@H]1OC(C)=O` (some centres not stated), the TGI is 34.3 µM in experiment [2]; 61 µM in experiment [3]; 39.8 µM in [4]; 30 µM in [5]; 45.8 µM in [6]; 48.2 µM in experiment [7]. In addition, the TGI amounted to 46.2 µM in [8], 60.1 µM in [9] and 50.9 µM in experiment [10].
With `CCCCC(=O)N/N=C/c1cc(I)cc(I)c1O`, the GI50 in [1] was 1.58 µM; in [2], 1.23 µM; in experiment [3], 2.32 µM; in experiment [4], 2.99 µM; in experiment [5] it was 2.7 µM; in experiment [7], 2.45 µM. The GI50 was 3.77 µM in experiment [8] and 3.43 µM in experiment [9]. Further, the TGI was found to be 10.5 µM in [1]; 12.5 µM in experiment [2]; 17.2 µM in [3]; 15.9 µM in experiment [4]; 14.8 µM in experiment [5]; 12.9 µM in experiment [7]. The values for the TGI in [8] and in experiment [9] were 26.1 µM and 35.6 µM, respectively.
On to `O=C1Nc2ccccc2C1Cc1ccccc1` (configuration not stated), for which the TGI in experiment [1], in experiment [2], in experiment [3], in experiment [4], in experiment [5] and in [6] was more than 100 µM each time. Moreover, the TGI in experiment [9] and in [10] was more than 100 µM in each case.
On to `COc1cccc(/C=N\Nc2ccc([N+](=O)[O-])cn2)c1O`, for which the GI50 in experiment [1] was 1.74 µM; in experiment [2] it was 3.42 µM; in experiment [3], 1.91 µM; in experiment [4] it was 3.12 µM; in experiment [5], 3.34 µM; in experiment [6] it was 2.92 µM. In addition, the GI50 in [8] was 4 µM; in experiment [9] it was 3.13 µM; in experiment [10], 7.31 µM. Also, the TGI in [1] is 4.14 µM; in experiment [2], 38.2 µM; in [3] it was 13.5 µM; in experiment [4], more than 100 µM; in experiment [5] it was 25.9 µM; in experiment [6], 14.9 µM. Moreover, the results for the TGI in experiment [8], in experiment [9] and in [10] were 62 µM, 27.8 µM and more than 100 µM, respectively.
On to `CC(C)C(=O)N[C@@H](C)C(=O)N(Cc1ccc2ccccc2c1)N=O`, for which the TGI in experiment [1], in experiment [2], in [3], in experiment [4], in experiment [5] and in experiment [7] was more than 100 µM in each case. The TGI in [8], in [9] and in experiment [10] was more than 100 µM in each case.
Consider `CC1(O)CC2C(CC1SCCO)C2(C)C` (configuration not stated), for which the TGI in experiment [2], in experiment [3], in [4], in [5], in experiment [6] and in experiment [7] was more than 100 µM each time. The TGI in experiment [8] and in experiment [10] was more than 100 µM each time.
Turning to `CC1=CC(C)(C)N=C2SC(c3ccc(Cl)cc3)=NN12`, the TGI in experiment [1] was more than 100 µM; in experiment [2] it was more than 100 µM; in experiment [3], more than 100 µM; in experiment [4], more than 100 µM; in experiment [5], more than 100 µM; in experiment [6], 81.5 µM. For the same compound, the TGI in experiment [7], in [9] and in experiment [10] was more than 100 µM in each case.
On to `N#Cc1ccccc1C#C/C=C\C#Cc1ccc(OCCCNC(=O)c2cc3ccccc3[nH]2)cc1`, for which the GI50 in [1] is 20.2 µM; in [2], 4.6 µM; in [3], 14.1 µM; in experiment [4], 3.2 µM; in experiment [5], 21.8 µM; in experiment [6], 24.2 µM. The GI50 in experiment [7] was 16.1 µM; in experiment [9], 16.5 µM; in [10] it was 15.7 µM. In addition, the TGI in experiment [1] is 48 µM; in experiment [2], 44.3 µM; in experiment [3], 33.7 µM; in [4] it was 19 µM; in experiment [5] it was more than 100 µM; in [6] it was 98.2 µM. Also, the values for the TGI in experiment [7], in experiment [9] and in experiment [10] were 34.6 µM, 39.7 µM and 34 µM, respectively.
In the case of `COC(=O)c1ccccc1NC(=O)/C(=N\NC(C)(C)C)C(C#N)c1nc(-c2ccc([N+](=O)[O-])cc2)cs1` (configuration not stated), the TGI in experiment [1], in experiment [2], in [3], in [4], in experiment [5] and in experiment [6] was more than 100 µM throughout. Moreover, the TGI in [7], in [8] and in experiment [9] was more than 100 µM in each case.
As for `CCCCCCCCCCCCCCCC(=O)OCC(O)C1OC(=O)C(O)=C1O` (configuration not stated), the TGI in experiment [1] is 96.6 µM; in experiment [2] it was 47.5 µM; in experiment [3], 84.5 µM; in [4], 77.7 µM; in experiment [5], 36.2 µM; in experiment [6], 96.3 µM. The TGI in experiment [7] was determined as 40.4 µM; in experiment [8] it was 96.9 µM; in [9], 91.4 µM.

The record behind these values is PubChem BioAssay (NCI).
